From ChEMBL document CHEMBL1201862, “PubChem BioAssay data set” (2004)
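Results reflect a 48-hour exposure of cells in 96-well plates to compound at five concentrations. Here, GI50 denotes the concentration required for 50% inhibition of growth.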 Active and inactive are the calls of the source. Rule as the data show it: active = GI50 up to about 1.1 µM and inactive = higher.

What was measured:
Experiment in all cases: DTP human tumour cell line panel, 48 h
[1] = tested on: SNB-75
[2] = tested on: U-251
[3] = tested on: RXF 393
[4] = tested on: SF-539
[5] = tested on: UO-31
[6] = tested on: 786-0
[7] = tested on: HOP-62
[8] = tested on: KM-20L2
[9] = tested on: NCI-H226
[10] = tested on: SK-MEL-28
[11] = tested on: UACC-257
[12] = tested on: ACHN
[13] = tested on: SW-620
[14] = tested on: RPMI-8226
[15] = tested on: EKVX
[16] = tested on: SNB-19
[17] = tested on: LOX IMVI
[18] = tested on: SK-MEL-5
[19] = tested on: T47D
[20] = tested on: Hs-578T

Measured: GI50

CCCCCN(CCCCC)C(=O)[C@H](CCC(=O)O)NC(=O)c1cc2ccccc2[nH]1
inactive: [1] 32.7 µM | [2] 35.7 µM | [3] 33.3 µM | [4] 41.2 µM | [5] 31 µM | [6] 92.7 µM | [7] 56 µM | [8] 55.3 µM | [9] 36.6 µM | [10] 29.8 µM | [11] > 100 µM | [12] 49.2 µM | [13] > 100 µM | [14] 21.8 µM | [15] > 100 µM | [16] 35.6 µM | [17] > 100 µM

O=C(O)\C=C/C=C/C=C/C=C/C(=O)O
inactive: [1] > 100 µM | [2] > 100 µM | [3] > 100 µM | [18] > 100 µM | [4] > 100 µM | [5] > 100 µM | [6] > 100 µM | [7] > 100 µM | [8] > 100 µM | [9] > 100 µM | [10] > 100 µM | [11] > 100 µM | [12] > 100 µM | [13] > 100 µM | [14] > 100 µM | [15] > 100 µM | [16] > 100 µM | [17] > 100 µM

COc1cc2c(c(C)c1O)[C@H]1COc3ccccc3[C@H]1O2
inactive: [1] 3.95 µM | [2] > 10 µM | [3] 9.06 µM | [18] 10.8 µM | [4] 8.41 µM | [5] 8.51 µM | [6] 16.6 µM | [7] 6.59 µM | [8] 18.2 µM | [9] 6.25 µM | [10] 12.6 µM | [11] 12.4 µM | [12] 21.2 µM | [13] 5.27 µM | [14] 13.8 µM | [15] 12.2 µM | [16] 1.49 µM | [17] 3.65 µM

Nc1cc2c(C3OC(CO)C(O)C3O)n[nH]c2c(=S)[nH]1 (stereo not drawn)
inactive: [1] > 100 µM | [2] > 100 µM | [3] 32.7 µM | [18] > 100 µM | [4] > 100 µM | [5] > 100 µM | [6] > 100 µM | [7] > 100 µM | [8] > 100 µM | [9] > 100 µM | [10] > 100 µM | [11] > 100 µM | [12] > 100 µM | [13] > 100 µM | [14] > 100 µM | [15] > 100 µM | [16] > 100 µM

O=c1nc2sc3ccc4ccccc4c3n2nc1O
inactive: [1] 41.1 µM | [2] 25.2 µM | [3] 15.5 µM | [18] 43.8 µM | [4] > 100 µM | [6] > 10 µM | [7] 23.8 µM | [8] 25.3 µM | [9] 30.5 µM | [10] 40.4 µM | [13] 79.4 µM | [14] > 10 µM | [15] 60 µM | [16] 60.1 µM

COc1ccc(N2C(=O)C3C=CC(n4[nH]c(=O)n(Cc5ccccc5)c4=O)CC3C2=O)cc1 (stereo not drawn)
inactive: [1] > 100 µM | [2] > 100 µM | [3] > 100 µM | [18] > 100 µM | [4] > 100 µM | [5] > 100 µM | [6] > 100 µM | [7] > 100 µM | [8] > 100 µM | [9] > 100 µM | [10] > 100 µM | [11] > 100 µM | [12] > 100 µM | [13] > 100 µM | [14] > 100 µM | [15] > 100 µM | [16] > 100 µM | [17] > 100 µM

C/C(=N\O)C(CN1CCCCC1)C(c1ccccc1)c1c(O)c2ccccc2oc1=O (stereo not drawn)
inactive: [1] > 100 µM | [3] > 100 µM | [18] > 100 µM | [4] > 100 µM | [6] > 100 µM | [7] > 100 µM | [8] > 100 µM | [9] > 100 µM | [10] > 100 µM | [11] > 100 µM | [12] > 100 µM | [13] > 100 µM | [14] > 100 µM | [15] > 100 µM | [16] > 100 µM | [17] > 100 µM

c1ccc(COc2cccc3cccnc23)cc1
inactive: [1] 67.9 µM | [3] 42.4 µM | [18] 50.2 µM | [4] > 100 µM | [5] 56.9 µM | [6] > 100 µM | [7] > 100 µM | [8] > 100 µM | [9] > 100 µM | [10] > 100 µM | [11] > 100 µM | [12] > 100 µM | [13] > 100 µM | [14] > 100 µM | [15] 83.9 µM | [16] > 100 µM | [17] 54.5 µM

COC1OC(C)C(OCc2ccccc2)C(OS(=O)(=O)c2ccc(C)cc2)C1OS(=O)(=O)c1ccc(C)cc1 (stereo not drawn)
inactive: [1] > 100 µM | [2] > 100 µM | [3] > 100 µM | [18] > 100 µM | [4] > 100 µM | [5] > 100 µM | [6] > 100 µM | [7] > 100 µM | [8] > 100 µM | [9] > 100 µM | [10] > 100 µM | [11] > 100 µM | [12] > 100 µM | [13] > 100 µM | [14] > 100 µM | [15] > 100 µM | [16] > 100 µM

CCCc1nc(NC#N)nc(C(=O)Nc2ccccc2)c1CC
inactive: [1] > 100 µM | [2] > 100 µM | [3] > 100 µM | [18] > 100 µM | [4] > 100 µM | [5] > 100 µM | [6] > 100 µM | [7] > 100 µM | [8] > 100 µM | [9] > 100 µM | [10] > 100 µM | [11] > 100 µM | [12] > 100 µM | [13] > 100 µM | [14] > 100 µM | [15] > 100 µM | [16] > 100 µM | [17] > 100 µM

N#CCC(=O)Nc1ccccc1O
inactive: [1] > 100 µM | [2] > 100 µM | [3] > 100 µM | [18] > 100 µM | [4] > 100 µM | [5] > 100 µM | [6] > 100 µM | [7] > 100 µM | [8] > 100 µM | [9] > 100 µM | [10] > 100 µM | [11] > 100 µM | [12] > 100 µM | [13] > 100 µM | [14] > 100 µM | [15] > 100 µM | [16] > 100 µM

O=[As]O
inactive: [1] > 51.1 µM | [2] 23.2 µM | [19] > 100 µM | [3] > 32.9 µM | [18] 32.4 µM | [4] 22.8 µM | [5] > 100 µM | [6] > 57.3 µM | [7] > 100 µM | [8] 48.3 µM | [9] > 48.3 µM | [10] > 59 µM | [11] > 48.6 µM | [12] > 100 µM | [13] > 64.1 µM | [14] > 40.5 µM | [20] > 100 µM | [15] > 60 µM | [16] > 67.5 µM | [17] > 47.9 µM

CC(c1ccccc1)N1O[C@]12CC[C@@]1(C)C(CCCC13OCCO3)C2 (stereo partly drawn)
inactive: [1] 22.1 µM | [2] 21.1 µM | [3] 23.6 µM | [18] 36.1 µM | [4] 56.2 µM | [5] 18 µM | [6] 19.4 µM | [7] > 100 µM | [8] > 100 µM | [9] > 100 µM | [10] 47.8 µM | [11] 21.4 µM | [12] 16.5 µM | [13] 16.7 µM | [14] 35.7 µM | [16] > 100 µM | [17] 11.8 µM

C#CCOCn1cnc2c(S)ncnc21
inactive: [1] 13.6 µM | [2] > 100 µM | [3] > 100 µM | [18] > 100 µM | [5] > 100 µM | [6] > 100 µM | [7] > 100 µM | [8] > 100 µM | [9] > 100 µM | [10] > 100 µM | [11] > 100 µM | [12] > 100 µM | [13] > 100 µM | [14] > 100 µM | [15] > 100 µM | [16] > 100 µM | [17] > 100 µM

O=C(OC[C@H]1O[C@@H](OC(=O)c2cc(O)c(O)c(O)c2)[C@H](OC(=O)c2cc(O)c(O)c(O)c2)[C@@H](OC(=O)c2cc(O)c(O)c(O)c2)[C@@H]1OC(=O)c1cc(O)c(O)c(O)c1)c1cc(O)c(O)c(O)c1 [PENTAGALLOYL GLUCOSE]
inactive: [2] 5.33 µM | [3] 7.73 µM | [18] 11.3 µM | [4] 2.49 µM | [5] 5.79 µM | [6] 4.99 µM | [7] 3.89 µM | [8] 4.27 µM | [9] 1.49 µM | [10] 15.3 µM | [11] 14.9 µM | [12] 3.89 µM | [13] 6 µM | [14] 2.76 µM | [15] 6.04 µM | [16] 4.88 µM | [17] 1.72 µM
